Columns and labels:
Test in all cases: KINOMEscan competition binding
Conditions in all cases: compound 10.0 µM
[1] = tested on: EGFR (human), P00533 [T790M]
CSNK1G3 (human) = CSNK1G3 (human) (UniProt Q9Y6M4)
CDK19 (human) = CDK19 (human) (UniProt Q9BWU1)
OXSR1 (human) = OXSR1 (human) (UniProt O95747)
CaMK1 (human) = CaMK1 (human) (UniProt Q14012)
EIF2AK2 (human) = EIF2AK2 (human) (UniProt P19525)
HIPK2 (human) = HIPK2 (human) (UniProt Q9H2X6)
GSK3B (human) = GSK3B (human) (UniProt P49841)
PDGFRA (human) = PDGFRA (human) (UniProt P16234)
RPS6KA2 KD2 (human) = RPS6KA2 KD2 (human) (UniProt Q15349)
PIP4K2B (human) = PIP4K2B (human) (UniProt P78356)
NEK5 (human) = NEK5 (human) (UniProt Q6P3R8)
NEK2 (human) = NEK2 (human) (UniProt P51955)
TGFBR1 (human) = TGFBR1 (human) (UniProt P36897)
EPHB4 (human) = EPHB4 (human) (UniProt P54760)
MAPK4 (human) = MAPK4 (human) (UniProt P31152)
MAP4K3 (human) = MAP4K3 (human) (UniProt Q8IVH8)
RPS6KA2 KD1 (human) = RPS6KA2 KD1 (human) (UniProt Q15349)
CDK4 CCND1 (human) = CDK4 CCND1 (human) (UniProt P11802+P24385)
BMPR1A (human) = BMPR1A (human) (UniProt P36894)
MYLK4 (human) = MYLK4 (human) (UniProt Q86YV6)
WEE1 (human) = WEE1 (human) (UniProt P30291)
PRKAA1 (human) = PRKAA1 (human) (UniProt Q13131)
ANKK1 (human) = ANKK1 (human) (UniProt Q8NFD2)
[2] = tested on: EGFR (human), P00533 [747-751 del / S ins]
KDR (human) = KDR (human) (UniProt P35968)
NIM1 (human) = NIM1 (human) (UniProt Q8IY84)
FLT3 (human) = FLT3 (human) (UniProt P36888)
MAPK15 (human) = MAPK15 (human) (UniProt Q8TD08)
TXK (human) = TXK (human) (UniProt P42681)
MYLK3 (human) = MYLK3 (human) (UniProt Q32MK0)
MYLK2 (human) = MYLK2 (human) (UniProt Q9H1R3)
BTK (human) = BTK (human) (UniProt Q06187)
ERN1 (human) = ERN1 (human) (UniProt O75460)
CAMK4 (human) = CAMK4 (human) (UniProt Q16566)

MYLK2 (human), sequence (Q9H1R3 whole entry, looked up): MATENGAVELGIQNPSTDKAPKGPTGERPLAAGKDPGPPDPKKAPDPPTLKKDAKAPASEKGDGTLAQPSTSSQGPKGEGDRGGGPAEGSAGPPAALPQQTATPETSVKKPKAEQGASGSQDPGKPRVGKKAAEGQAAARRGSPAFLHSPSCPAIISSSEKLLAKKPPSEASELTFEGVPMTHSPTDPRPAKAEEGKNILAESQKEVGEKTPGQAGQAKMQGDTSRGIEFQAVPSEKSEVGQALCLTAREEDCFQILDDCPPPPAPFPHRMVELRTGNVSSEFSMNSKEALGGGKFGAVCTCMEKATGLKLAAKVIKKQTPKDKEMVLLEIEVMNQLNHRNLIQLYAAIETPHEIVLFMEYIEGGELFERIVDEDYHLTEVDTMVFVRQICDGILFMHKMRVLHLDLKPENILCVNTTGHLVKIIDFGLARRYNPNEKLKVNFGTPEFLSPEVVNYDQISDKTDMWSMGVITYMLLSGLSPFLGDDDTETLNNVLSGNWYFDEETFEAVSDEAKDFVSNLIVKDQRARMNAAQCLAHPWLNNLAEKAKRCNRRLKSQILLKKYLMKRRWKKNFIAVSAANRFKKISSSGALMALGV
KDR (human), sequence (P35968 whole entry, looked up): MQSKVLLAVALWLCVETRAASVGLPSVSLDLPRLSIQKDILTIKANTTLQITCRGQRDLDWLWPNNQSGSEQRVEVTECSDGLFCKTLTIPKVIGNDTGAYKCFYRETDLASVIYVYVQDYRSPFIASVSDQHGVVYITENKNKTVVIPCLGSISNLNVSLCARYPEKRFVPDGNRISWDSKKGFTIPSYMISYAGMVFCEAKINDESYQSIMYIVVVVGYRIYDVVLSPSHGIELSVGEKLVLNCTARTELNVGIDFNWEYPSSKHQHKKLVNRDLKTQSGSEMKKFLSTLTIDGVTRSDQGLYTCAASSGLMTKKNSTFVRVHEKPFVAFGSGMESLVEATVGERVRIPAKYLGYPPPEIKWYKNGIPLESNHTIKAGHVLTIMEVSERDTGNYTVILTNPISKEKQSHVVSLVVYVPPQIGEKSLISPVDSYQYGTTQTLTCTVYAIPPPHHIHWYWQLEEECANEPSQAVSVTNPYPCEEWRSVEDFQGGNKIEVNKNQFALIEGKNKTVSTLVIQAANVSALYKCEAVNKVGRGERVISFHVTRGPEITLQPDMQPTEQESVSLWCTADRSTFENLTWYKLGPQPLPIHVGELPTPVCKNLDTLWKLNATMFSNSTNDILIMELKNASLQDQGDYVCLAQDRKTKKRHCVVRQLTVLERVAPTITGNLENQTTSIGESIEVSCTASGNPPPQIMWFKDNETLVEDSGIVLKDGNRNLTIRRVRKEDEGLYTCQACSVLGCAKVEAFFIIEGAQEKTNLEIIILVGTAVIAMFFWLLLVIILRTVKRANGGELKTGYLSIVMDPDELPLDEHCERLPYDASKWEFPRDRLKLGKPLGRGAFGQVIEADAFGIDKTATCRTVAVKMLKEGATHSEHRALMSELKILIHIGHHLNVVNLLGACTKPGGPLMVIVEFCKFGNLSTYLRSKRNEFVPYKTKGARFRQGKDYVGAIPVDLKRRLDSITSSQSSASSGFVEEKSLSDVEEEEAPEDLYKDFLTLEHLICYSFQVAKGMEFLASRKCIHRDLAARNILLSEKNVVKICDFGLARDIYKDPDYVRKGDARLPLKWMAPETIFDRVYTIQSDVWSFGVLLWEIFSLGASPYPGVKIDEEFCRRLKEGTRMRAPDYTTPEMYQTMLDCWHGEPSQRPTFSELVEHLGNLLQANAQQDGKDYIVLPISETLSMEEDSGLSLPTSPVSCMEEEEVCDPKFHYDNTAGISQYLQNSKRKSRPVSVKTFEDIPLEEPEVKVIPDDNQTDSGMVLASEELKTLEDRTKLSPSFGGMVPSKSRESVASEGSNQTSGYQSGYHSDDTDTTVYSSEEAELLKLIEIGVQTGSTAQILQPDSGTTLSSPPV
NEK2 (human), sequence (P51955 whole entry, looked up): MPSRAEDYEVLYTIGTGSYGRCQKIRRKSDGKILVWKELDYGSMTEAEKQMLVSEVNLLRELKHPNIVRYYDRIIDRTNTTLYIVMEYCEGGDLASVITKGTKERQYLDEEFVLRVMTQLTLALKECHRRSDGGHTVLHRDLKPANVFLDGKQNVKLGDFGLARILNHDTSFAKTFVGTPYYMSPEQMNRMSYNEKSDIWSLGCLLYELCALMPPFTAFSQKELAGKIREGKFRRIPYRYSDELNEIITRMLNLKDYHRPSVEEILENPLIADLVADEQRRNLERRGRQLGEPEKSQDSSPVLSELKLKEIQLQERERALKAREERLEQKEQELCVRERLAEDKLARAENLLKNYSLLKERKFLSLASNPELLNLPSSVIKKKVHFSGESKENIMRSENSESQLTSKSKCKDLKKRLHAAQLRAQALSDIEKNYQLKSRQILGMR
CDK19 (human), sequence (Q9BWU1 whole entry, looked up): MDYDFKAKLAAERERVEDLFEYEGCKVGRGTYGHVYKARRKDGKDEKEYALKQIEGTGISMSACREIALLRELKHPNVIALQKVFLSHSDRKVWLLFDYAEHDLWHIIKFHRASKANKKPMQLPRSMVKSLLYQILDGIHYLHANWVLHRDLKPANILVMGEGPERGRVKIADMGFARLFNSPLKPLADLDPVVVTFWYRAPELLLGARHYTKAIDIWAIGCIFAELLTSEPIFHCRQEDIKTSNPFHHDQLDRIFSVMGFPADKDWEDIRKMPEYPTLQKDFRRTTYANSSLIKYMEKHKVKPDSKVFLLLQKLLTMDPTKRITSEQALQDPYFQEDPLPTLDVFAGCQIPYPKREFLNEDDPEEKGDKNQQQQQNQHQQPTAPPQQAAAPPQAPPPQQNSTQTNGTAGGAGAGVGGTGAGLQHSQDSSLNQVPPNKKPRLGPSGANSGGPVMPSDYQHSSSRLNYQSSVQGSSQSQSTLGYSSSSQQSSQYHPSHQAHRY
CSNK1G3 (human), sequence (Q9Y6M4 whole entry, looked up): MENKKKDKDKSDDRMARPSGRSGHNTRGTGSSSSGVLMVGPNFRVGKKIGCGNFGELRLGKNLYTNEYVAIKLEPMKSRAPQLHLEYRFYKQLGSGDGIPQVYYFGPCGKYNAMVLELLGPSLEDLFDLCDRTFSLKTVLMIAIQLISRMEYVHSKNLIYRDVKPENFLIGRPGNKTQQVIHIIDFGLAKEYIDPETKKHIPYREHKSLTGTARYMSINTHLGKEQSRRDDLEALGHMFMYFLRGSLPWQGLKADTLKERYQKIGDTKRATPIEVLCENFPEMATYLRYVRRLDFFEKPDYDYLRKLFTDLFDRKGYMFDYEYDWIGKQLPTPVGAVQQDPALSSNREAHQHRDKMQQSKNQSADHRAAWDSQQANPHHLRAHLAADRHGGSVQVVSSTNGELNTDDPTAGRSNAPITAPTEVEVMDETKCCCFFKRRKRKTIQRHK
ERN1 (human), sequence (O75460 whole entry, looked up): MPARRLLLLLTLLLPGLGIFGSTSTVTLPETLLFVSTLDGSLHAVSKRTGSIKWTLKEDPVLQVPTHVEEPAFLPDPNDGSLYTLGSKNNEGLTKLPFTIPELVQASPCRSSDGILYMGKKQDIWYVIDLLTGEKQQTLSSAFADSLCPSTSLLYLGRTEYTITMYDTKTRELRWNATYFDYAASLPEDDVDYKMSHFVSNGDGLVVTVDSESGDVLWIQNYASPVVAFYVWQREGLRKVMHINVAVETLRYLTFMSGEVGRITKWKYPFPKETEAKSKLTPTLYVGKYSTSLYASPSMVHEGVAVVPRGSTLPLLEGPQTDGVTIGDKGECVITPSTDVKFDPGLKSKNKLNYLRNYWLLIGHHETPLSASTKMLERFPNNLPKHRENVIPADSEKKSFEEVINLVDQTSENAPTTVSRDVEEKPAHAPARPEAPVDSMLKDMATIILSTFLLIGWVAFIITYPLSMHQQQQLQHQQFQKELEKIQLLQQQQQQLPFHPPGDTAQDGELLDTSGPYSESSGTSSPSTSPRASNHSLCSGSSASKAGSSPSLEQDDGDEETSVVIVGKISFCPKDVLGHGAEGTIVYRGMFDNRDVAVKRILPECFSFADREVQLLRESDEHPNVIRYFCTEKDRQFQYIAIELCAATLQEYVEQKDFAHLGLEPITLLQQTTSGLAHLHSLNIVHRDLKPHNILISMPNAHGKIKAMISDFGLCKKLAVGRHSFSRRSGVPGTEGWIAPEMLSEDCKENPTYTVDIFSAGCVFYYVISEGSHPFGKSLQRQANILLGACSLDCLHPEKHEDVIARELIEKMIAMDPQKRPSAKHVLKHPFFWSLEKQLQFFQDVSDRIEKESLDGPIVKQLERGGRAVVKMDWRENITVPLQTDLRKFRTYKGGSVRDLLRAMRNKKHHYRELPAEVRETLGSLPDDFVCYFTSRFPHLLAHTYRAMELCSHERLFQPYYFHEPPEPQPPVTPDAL
CDK4 CCND1 (human), sequence (P11802 whole entry, looked up): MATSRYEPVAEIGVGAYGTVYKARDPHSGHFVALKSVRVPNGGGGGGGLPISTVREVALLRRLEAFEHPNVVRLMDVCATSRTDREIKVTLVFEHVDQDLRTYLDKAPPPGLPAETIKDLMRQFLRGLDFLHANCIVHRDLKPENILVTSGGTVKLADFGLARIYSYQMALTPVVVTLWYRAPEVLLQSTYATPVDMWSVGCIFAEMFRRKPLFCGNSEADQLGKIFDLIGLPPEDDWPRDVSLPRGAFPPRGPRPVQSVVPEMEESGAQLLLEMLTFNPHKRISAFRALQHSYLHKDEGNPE
CDK4 CCND1 (human), sequence (P24385 whole entry, looked up): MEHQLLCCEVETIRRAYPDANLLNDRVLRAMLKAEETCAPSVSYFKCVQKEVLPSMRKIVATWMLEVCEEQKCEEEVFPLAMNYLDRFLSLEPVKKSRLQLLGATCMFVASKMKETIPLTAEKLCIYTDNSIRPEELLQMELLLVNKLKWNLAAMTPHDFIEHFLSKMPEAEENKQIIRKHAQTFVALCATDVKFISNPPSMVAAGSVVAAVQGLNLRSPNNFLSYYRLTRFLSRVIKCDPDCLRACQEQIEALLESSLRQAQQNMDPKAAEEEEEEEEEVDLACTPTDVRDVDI

Row | SMILES | kinase still bound, per cent of control [1] | kinase still bound, per cent of control (CSNK1G3 (human)) | kinase still bound, per cent of control (CDK19 (human)) | kinase still bound, per cent of control (OXSR1 (human)) | kinase still bound, per cent of control (CaMK1 (human)) | kinase still bound, per cent of control (EIF2AK2 (human)) | kinase still bound, per cent of control (HIPK2 (human)) | kinase still bound, per cent of control (GSK3B (human)) | kinase still bound, per cent of control (PDGFRA (human)) | kinase still bound, per cent of control (RPS6KA2 KD2 (human)) | kinase still bound, per cent of control (PIP4K2B (human)) | kinase still bound, per cent of control (NEK5 (human)) | kinase still bound, per cent of control (NEK2 (human)) | kinase still bound, per cent of control (TGFBR1 (human)) | kinase still bound, per cent of control (EPHB4 (human)) | kinase still bound, per cent of control (MAPK4 (human)) | kinase still bound, per cent of control (MAP4K3 (human)) | kinase still bound, per cent of control (RPS6KA2 KD1 (human)) | kinase still bound, per cent of control (CDK4 CCND1 (human)) | kinase still bound, per cent of control (BMPR1A (human)) | also measured
1 | COc1cc2ncnc(-n3nc(-c4ccccn4)nc3N)c2cc1OC | 67% | 20% | 100% | 42% | 31% | 21% | 0.65% | 100% | 57% | 43% | 44% | 26% | 57% | 14% | 22% | 85% | 53% | 76% | 47% | 0.3% | kinase still bound, per cent of control (MYLK4 (human)): 25%; kinase still bound, per cent of control (WEE1 (human)): 80%; kinase still bound, per cent of control (PRKAA1 (human)): 19%; kinase still bound, per cent of control (ANKK1 (human)): 12%; kinase still bound, per cent of control [2]: 77%; kinase still bound, per cent of control (KDR (human)): 52%; kinase still bound, per cent of control (NIM1 (human)): 89%; kinase still bound, per cent of control (FLT3 (human)): 20%; kinase still bound, per cent of control (MAPK15 (human)): 0.55%; kinase still bound, per cent of control (TXK (human)): 43%; kinase still bound, per cent of control (MYLK3 (human)): 100%; kinase still bound, per cent of control (MYLK2 (human)): 61%; kinase still bound, per cent of control (BTK (human)): 51%; kinase still bound, per cent of control (ERN1 (human)): 46%; kinase still bound, per cent of control (CAMK4 (human)): 100%
2 | O=C(Nc1cccc(Nc2ncc(Br)c(NCCc3cnc[nH]3)n2)c1)N1CCCC1 | 2% | 88% | 100% | 25% | 11% | 31% | 1.6% | 44% | 0.1% | 4.8% | 0.55% | 0.5% | 6.2% | 77% | 78% | 3.2% | 4.6% | 7.6% | 0.25% | 0.8% | kinase still bound, per cent of control (MYLK4 (human)): 6.8%; kinase still bound, per cent of control (WEE1 (human)): 52%; kinase still bound, per cent of control (PRKAA1 (human)): 0.35%; kinase still bound, per cent of control (ANKK1 (human)): 4.3%; kinase still bound, per cent of control [2]: 67%; kinase still bound, per cent of control (KDR (human)): 1.8%; kinase still bound, per cent of control (NIM1 (human)): 0.05%; kinase still bound, per cent of control (FLT3 (human)): 0%; kinase still bound, per cent of control (MAPK15 (human)): 1.8%; kinase still bound, per cent of control (TXK (human)): 17%; kinase still bound, per cent of control (MYLK3 (human)): 0.1%; kinase still bound, per cent of control (MYLK2 (human)): 0.35%; kinase still bound, per cent of control (BTK (human)): 5.2%; kinase still bound, per cent of control (ERN1 (human)): 34%; kinase still bound, per cent of control (CAMK4 (human)): 100%

From the kinase profiling compilation of Christmann-Franck et al. (2016)
